Data on eight compounds can be found in publication PMC9775191, “A Subset Screen of the Compounds Australia Scaffold Library Identifies 7-Acylaminodibenzoxazepinones as Potent and Selective Hits for Anti-Giardia Drug Discovery” (Biomedicines, 2022).

In general, IC50 refers to the midpoint of a concentration-inhibition curve. The inhibition is the drop in the measured response relative to a control, in per cent.

One data set deals with Giardia infections. The conditions noted are these: cited from earlier work; for clinical failure rates: 5-nitroimidazoles.
The test system of data set [1] is Neonatal foreskin fibroblast (NFF) cells. The data set is described as follows: Mammalian cell cytotoxicity assay (sulforhodamine B). In kind it is cell-based, human. The conditions noted are these: for SI (48h Gd): Table S2, NFF vs 48 h Giardia IC50; for inhibition at 20 µM: ±SD. The procedure, abridged:
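Dose–response from a top concentration of 100 µM was run on NFF cells, with sulforhodamine B as the viability read-out. Plates included media, no-compound, DMSO and chloroquine controls. Fibroblast IC50 was divided by the G. duodenalis BRIS/91/HEPU/1279 IC50 to give the selectivity index.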

The test system of data set [2] is G. duodenalis BRIS/91/HEPU/1279. Kind of data set: Giardia dose response assay, assemblage B. The class given is cell-based, Giardia duodenalis. The conditions noted are these: for IC50: Giardia duodenalis. A digest of the protocol:
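Assemblage B trophozoites (BRIS/91/HEPU/1279, 1.5 × 10^4 parasites/well) faced 8–12-point doubling dilutions in duplicate, incubated 48 h at 37 °C under 3% O2, 5% CO2 in N2. Parasites were imaged and counted at 24 and 48 h. Growth inhibition was taken versus vehicle controls minus background, with IC50 by log-linear interpolation.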

Data set [3] relates to Escherichia coli (ATCC 25922). Kind of data set: Anti-bacterial activity assay. The class given is cell-based. The conditions noted are these: for inhibition at 50 µM: Escherichia coli, ATCC25922, 50 µM, read-out: Bacterial Inhibition E. coli. A digest of the protocol:
(§1)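 Compounds tested once at 50 µM in duplicate against mid-log cultures at 5 × 10^5 CFU/mL, incubated 18 h at 37 °C without shaking. Growth read by absorbance at 600 nm; percentage inhibition calculated relative to bacteria-only wells. Vancomycin (Gram-positive) and colistin (Gram-negative) served as plate controls.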

Data set [4] is described as follows: In vivo tolerability assessment. As for the experimental part: In brief, separate groups of three mice were administered single, increasing doses of compound via oral gavage to examine tolerability. […] After a week of observation, mice in each group were euthanized and samples collected for pathology assessment. The highest dose assessed was 50 mg/kg. To further assess the safety of SN00797640, this highest dose was also administered to a final group of three mice, daily for three days.

In data set [5] the test system is G. duodenalis BRIS/91/HEPU/1279. Kind of data set: Primary Giardia screen at 10 µM (live-cell imaging, automated counting). The class given is cell-based, Giardia duodenalis. Conditions: for inhibition at 10 µM: Giardia duodenalis. The procedure, abridged: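 Compounds were tested once each at 10 μM final (0.2% DMSO) in culture medium under 3% O2, 5% CO2 in N2. Growth was read at 24 and 48 h by live-cell imaging with automated counting, and inhibition expressed as percent growth versus 0.2% DMSO vehicle after media-only background subtraction.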

The subject of a further data set is BRIS/87/HEPU/713. The data set is described as follows: Giardia dose response assay, assemblage A. The class given is cell-based. The conditions noted are these: Giardia duodenalis. On the procedure: (§2) In these assays, compounds were serially diluted (8–12-point doubling dilutions in technical duplicate) in DMSO control media, with all test wells inoculated with parasites (1.5 × 10^4 parasites for BRIS/91/HEPU/1279 and BRIS/91/HEPU/1279m1, or 3 × 10^3 parasites for BRIS/87/HEPU/713). Albendazole (positive control) plates were run with each experiment. All plates were sealed in culture chambers and gassed with 3% O2, 5% CO2 in N2 and incubated at 37 °C for 48 h, with parasites imaged and enumerated at 24 and 48 h. Growth inhibition was calculated as a percentage relative to vehicle controls minus any background as described above and IC50 values were determined using log-linear interpolation as previously described. […] Statistical comparison of IC50 values when required were performed using Student’s t-test.

The next data set deals with BRIS/91/HEPU/1279. The data set is described as follows: Combination studies (isobolograms). The class given is cell-based, Giardia duodenalis. Conditions: 24 h. As for the experimental part:
The activity of each combination was assessed against BRIS/91/HEPU/1279. A total of 14, 8-point dose–response assays were performed with each combination in triplicate on at least two occasions in 96-well microtiter plates (1.5x10^4 BRIS/91/HEPU/1279 trophozoites per well). Plates were incubated in chambers gassed with 3% O2, 5% CO2 in N2 at 37 °C for 24 h before parasite growth was assessed by imaging. Media and vehicle controls were included on each plate. […] Isoboles were fitted using the standard hyperbolic function defined by the parameter I as previously described, where Positive values of I indicate synergy, negative values indicate antagonism and addition occurs when I equals 0. The significance of the difference of I from zero was assessed with Student’s t test.

The test system of a further data set is BRIS/91/HEPU/1279m1. Kind of data set: Giardia dose response assay, metronidazole resistant line. In kind it is cell-based. The conditions noted are these: Giardia duodenalis. On the procedure: as §2
For data set [6], the system named is Klebsiella pneumoniae (ATCC 700603). Kind of data set: Anti-bacterial activity assay. In kind it is cell-based. The conditions noted are these: ATCC700603, 50 µM, read-out: Bacterial Inhibition K. pneumoniae. The procedure, abridged:
as §1

The test system of data set [7] is Acinetobacter baumannii (ATCC 19606). The data set is described as follows: Anti-bacterial activity assay. The class given is cell-based. Conditions: ATCC19606, 50 µM. The procedure, abridged:
as §1

Data set [8] deals with methicillin resistant Staphylococcus aureus (ATCC 43300). Kind of data set: Anti-bacterial activity assay. The class given is cell-based. The conditions noted are these: Staphylococcus aureus, ATCC43300, 50 µM; read-out: Bacterial Inhibition S. aureus. A digest of the protocol: as §1
Where [9] appears, read: 24 h, read-out: G. duodenalis IC50 24h, Table S2, 24 h, ±SD, max 10 µM.
Where [10] appears, read: 24 h, first singlicate assay, read-out: % Inhibition n=1 24h.
The mark [11] stands for this setting: 24 h, re-assessment, read-out: % Inhibition n=2 24h.
Setting [12] is: 24 h, read-out: Average % Inhibition 24h.
The mark [13] stands for this setting: 48 h, first singlicate assay, read-out: % Inhibition n=1 48h.
The mark [14] stands for this setting: 48 h, re-assessment, read-out: % Inhibition n=2 48h.
Setting [15] is: 48 h, read-out: Average % Inhibition 48h.
Where [16] appears, read: 48 h, Table S2, 48 h, ±SD, max 10 µM, read-out: G. duodenalis IC50 48h.

Like-named read-outs stand apart in the source and are kept apart here.

Turning to `CCCSc1ccc2nc(NC(=O)OC)[nH]c2c1` [Albendazole], in the data set on Giardia infections, the treatment efficacy rates is listed as 25–90%.

As for `Cc1ncc([N+](=O)[O-])n1CCO` [Metronidazole, reference compound], the clinical failure rates in the data set on Giardia infections was 40–70%. In [1] (Homo sapiens, NFF, mean ± SD, read-out: IC50 NFF), the IC50 was over 75000 nM.

`Cc1ccc(C(=O)Nc2ccc3c(c2)N(C)C(=O)c2ccccc2O3)cc1` [SN00797640]: the “SI (48h Gd)” value in data set [1] was over 55. For the same compound, the “fold more potent than metronidazole” value in [2] (48 h IC50) is recorded as over 10 fold. Besides, the IC50 was found to be 380 ± 50 nM in data set [2] (setting [9]); 180 nM in data set [2] (48 h, BRIS/91/HEPU/1279, 48 h, mean ± SD, read-out: IC50 Giardia (48 h)); 181 nM in [2] (48 h, BRIS/91/HEPU/1279, 48 h, read-out: 48 h IC50); 115 ± 30 nM in the data set on BRIS/87/HEPU/713 (48 h, read-out: 48 h IC50); 164 ± 11 nM in the data set on BRIS/87/HEPU/713 (read-out: 24 h IC50, 24 h); 160 ± 27 nM with BRIS/91/HEPU/1279m1 (24 h, read-out: 24 h IC50). Besides, the IC50 with BRIS/91/HEPU/1279m1 (48 h, read-out: 48 h IC50) is 124 ± 3 nM. Besides, the “Bacterial Inhibition E. coli” value in data set [3] (50 µM) was under 5%. Further, in [3], the inhibition at 50 µM is 3.64%. In addition, the tolerability result in data set [4] (oral gavage, up to 50 mg/kg daily for three consecutive days) is recorded as “well tolerated with no adverse reactions detected”. Moreover, in [4] (test animals of tolerability study), the “histological analysis of liver and kidney samples” value is “no toxicity”. In [5] (48 h), the “Average % Inhibition 48h” value is recorded as over 90%. Further, the inhibition at 10 µM in [5] (setting [10]) was 97.5%; in data set [5] (setting [11]) it was 83.1%; in data set [5] (setting [12]), 90.3%; in data set [5] (setting [13]), 96.3%; in data set [5] (setting [14]) it was 97.2%; in [5] (setting [15]), 96.8%. Besides, the “interaction parameter I” value in the data set on BRIS/91/HEPU/1279 (combined with albendazole, synergistic) is on record as 4.7; with BRIS/91/HEPU/1279 (combined with metronidazole, additive), −0.3.

Take `Cn1nccc1-c1cccc(-c2noc(-c3cccc(F)c3)n2)c1` [SN00798315, Fc1cccc(c1)c1onc(n1)c1cccc(c1)c1ccnn1C]: the inhibition at 20 µM in data set [1] (Homo sapiens, NFF) is -9 ± 1.9%. The “SI (48h Gd)” value in [1] was over 4. Besides, the IC50 in data set [2] (setting [9]) is over 10000 nM; in data set [2] (setting [16]), 4740 ± 6400 nM. In addition, the inhibition at 50 µM in data set [6] was determined as 9.56%; in data set [7], 1.7%; in data set [8] it was 1.07%; in [3], 2.55%. Also, the inhibition at 10 µM worked out at 24.1% in [5] (setting [10]); 11.1% in data set [5] (setting [11]); 17.6% in [5] (setting [12]); 66.9% in data set [5] (setting [13]); 61.2% in data set [5] (setting [14]); 64% in data set [5] (setting [15]).

Take `Cc1cccc(CNS(=O)(=O)c2cc(-c3csc(C)n3)sc2C)c1` [SN00798431, Cc1cccc(CNS(=O)(=O)c2cc(sc2C)c2csc(C)n2)c1]: the inhibition at 20 µM in data set [1] (Homo sapiens, NFF) came out at 19.3 ± 27%. Further, the “SI (48h Gd)” value in data set [1] is given as over 3. The results for the IC50 in data set [2] (setting [9]) and in [2] (setting [16]) were over 10000 nM and 5930 ± 5700 nM, respectively. The inhibition at 50 µM in [6] was 13.7%; in [7], 42.5%; in [8], 13.3%; in [3] it was -0.77%. Also, the inhibition at 10 µM turned out to be 30.2% in data set [5] (setting [10]); 12.3% in data set [5] (setting [11]); 21.2% in [5] (setting [12]); 59.2% in data set [5] (setting [13]); 68.1% in data set [5] (setting [14]); 63.6% in data set [5] (setting [15]).

`Cc1ccc(C(=O)Nc2cc(-c3nc(C)cs3)sc2C)cc1` [SN00798457, Cc1ccc(cc1)C(=O)Nc1cc(sc1C)c1scc(C)n1]: in [1] (Homo sapiens, NFF), the inhibition at 20 µM stood at 16.3 ± 20.4%. Further, the IC50 in data set [2] (setting [9]) and in data set [2] (setting [16]) was over 10000 nM throughout. For the same compound, the inhibition at 50 µM in data set [6] is 0.63%; in data set [7], -2.12%; in data set [8], -16.6%; in data set [3] it was 1.98%. In addition, the inhibition at 10 µM in data set [5] (setting [10]) was 39.3%; in [5] (setting [11]), 16.7%; in [5] (setting [12]), 28%; in data set [5] (setting [13]), 60%; in data set [5] (setting [14]) it was 52.2%; in [5] (setting [15]), 56.1%.

Regarding `CC(C)c1ccc(Nc2ncccc2S(=O)(=O)N2CCCC2)cc1` [SN00799289, CC(C)c1ccc(cc1)Nc1ncccc1S(=O)(=O)N1CCCC1], the inhibition at 20 µM in data set [1] (Homo sapiens, NFF) was 11.4 ± 13.4%. For the same compound, the “SI (48h Gd)” value in [1] is over 5. Moreover, the IC50 in data set [2] (setting [9]) was over 10000 nM; in data set [2] (setting [16]), 3360 ± 1520 nM. Also, the inhibition at 50 µM is 14.4% in [6], 4.74% in data set [7], 3.06% in data set [8] and 1.89% in data set [3]. Further, the inhibition at 10 µM was 43.9% in data set [5] (setting [10]); 10.1% in [5] (setting [11]); 27% in data set [5] (setting [12]); 73.3% in data set [5] (setting [13]); 41.7% in [5] (setting [14]); 57.5% in data set [5] (setting [15]).

`CCS(=O)(=O)CCn1c([N+](=O)[O-])cnc1C` [tinidazole]: the clinical failure rates in the data set on Giardia infections is 40–70%.
